Measured values: patent publication US20240287138A1, “CYCLIC PEPTIDES FOR INHIBITING TNF RECEPTOR 1 ACTIVITY” (Merck Sharp & Dohme LLC, priority 2023, published 2024)
Read-outs that look alike come from different tables or passages of the source. Numbered stars: 1 amine (or outer) side, 2 acyl side, 3 side chain; on linkers, the order of the positions; unused ones are H or OH. Bridge positions count the residues as written; N and C are the ends. Square brackets hold non-standard residues; d marks the D form. Peptide text beside a SMILES is read from it. * marks the point of attachment. Trp(βS-Me,7-OMe) = COc1cccc2c([C@H](C)[C@H](N)C(=O)O)c[nH]c12; X49 = C[N+](C)(C)CC(=O)N[C@H]1C[C@H](C(=O)[*:2])N([*:1])C1; X56 = Cc1cccc2c([C@H](C)[C@H](N[*:1])C(=O)[*:2])c[nH]c12; Trp(1-CH2COOH) = N[C@@H](Cc1cn(CC(=O)O)c2ccccc12)C(=O)O; X44 = NC(=O)c1ccc([C@@H](O)[C@H](N[*:1])C(=O)[*:2])cc1; Phe(4-SO2NH2) = N[C@@H](Cc1ccc(S(N)(=O)=O)cc1)C(=O)O; Phe(4-SO3H) = N[C@@H](Cc1ccc(S(=O)(=O)O)cc1)C(=O)O; X54 = O=C(O)c1c(F)cc(C[C@H](N[*:1])C(=O)[*:2])cc1F; Trp(7-CN) = N#Cc1cccc2c(C[C@H](N)C(=O)O)c[nH]c12; Trp(7-Cl) = N[C@@H](Cc1c[nH]c2c(Cl)cccc12)C(=O)O; X62 = O=C(O)c1ccc(C[C@H](N[*:1])C(=O)[*:2])cc1Cl; Phe(4-CONH2) = NC(=O)c1ccc(C[C@H](N)C(=O)O)cc1; Phe(4-COOH) = N[C@@H](Cc1ccc(C(=O)O)cc1)C(=O)O; X59 = O=C([C@H](Cc1[nH]nc2ccccc12)N[*:1])[*:2]; Trp(7-aza) = N[C@@H](Cc1c[nH]c2ncccc12)C(=O)O; Pip(5R-OH) = O=C(O)[C@@H]1CC[C@@H](O)CN1; X1 = O=C([C@@H]1CC[C@H](N[*:1])C1)[*:2]; X53 = O=C([C@H](Cc1ccncc1F)N[*:1])[*:2]; Pip(4-aza) = O=C(O)[C@@H]1CNCCN1; 4Pal = N[C@@H](Cc1ccncc1)C(=O)O; NMeE = CN[C@@H](CCC(=O)O)C(=O)O; dHyp = O=C(O)[C@H]1C[C@H](O)CN1; Pip = O=C(O)[C@@H]1CCCCN1; αMeS = C[C@](N)(CO)C(=O)O; Carboxymethyl = O=C(O)C*; Nle = CCCC[C@H](N)C(=O)O; Me2NCH2CH2 = CN(C)CC*; Sar = CNCC(=O)O

How the values were obtained:
[1] = biological target: T1, TNFα-induced NF-κB signal transduction pathway (TNFR1 signaling) in THP-1 cells (Homo sapiens, UniProt P19438); test: THP-1 Lucia NF-κB reporter cell assay, inhibition of TNFα-induced NF-κB signaling; type: cell-based; conditions: THP-1 NF-κB Lucia reporter cells, 10 ng/mL TNFα, 16-18 h, secreted luciferase; read-out: THP-1 IC50
T1 sequence (P19438 30-455): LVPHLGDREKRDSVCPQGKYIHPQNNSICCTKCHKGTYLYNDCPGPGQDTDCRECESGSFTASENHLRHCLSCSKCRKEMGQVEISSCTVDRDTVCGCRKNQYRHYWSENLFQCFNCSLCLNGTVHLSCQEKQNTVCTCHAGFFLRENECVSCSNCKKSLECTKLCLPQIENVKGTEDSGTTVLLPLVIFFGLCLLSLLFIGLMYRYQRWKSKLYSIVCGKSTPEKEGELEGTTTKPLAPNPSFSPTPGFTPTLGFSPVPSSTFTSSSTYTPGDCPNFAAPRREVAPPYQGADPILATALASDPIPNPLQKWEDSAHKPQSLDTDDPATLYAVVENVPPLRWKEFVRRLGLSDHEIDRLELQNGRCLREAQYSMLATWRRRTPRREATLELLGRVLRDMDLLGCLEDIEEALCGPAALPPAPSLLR
Procedure, shortened: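 Inhibition of TNFR1-driven NF-κB activation was measured as luminescence of secreted reporter luciferase following overnight (16-18 h) stimulation with 10 ng/mL TNFα.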

[2] = biological target: T2, human soluble TNFR1 (sTNFR1) (Homo sapiens, UniProt P19438); test: Human sTNFR1-peptide displacement assay (LanthaScreen Eu TR-FRET binding assay)
T2 construct: made in house; host or cells: Sf21 (baculovirus)
T2 sequence (P19438 with tags, fused parts or gaps): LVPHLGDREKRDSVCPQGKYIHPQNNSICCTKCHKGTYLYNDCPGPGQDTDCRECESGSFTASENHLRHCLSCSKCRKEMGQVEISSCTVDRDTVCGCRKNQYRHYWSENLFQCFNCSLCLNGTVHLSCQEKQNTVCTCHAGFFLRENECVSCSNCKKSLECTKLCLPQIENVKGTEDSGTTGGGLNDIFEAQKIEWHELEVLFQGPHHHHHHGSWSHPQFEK
Procedure, shortened: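 Readout is the 665/615 nm TR-FRET ratio (Eu anti-His donor, streptavidin-Alexa647 acceptor), normalized to DMSO and saturating displacer, fit by Morrison-based five-parameter logistic for Kd^app. His-tagged sTNFR1 (1-211) prebound to 100 nM biotinylated peptide SEQ ID NO.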

Compound | IC50 [1] [nM] | Kd [2] [nM] | IC50 [2] [nM] | Kd ([2]; displacement of biotinylated peptide SEQ ID NO. 1 from sTNFR1, 20 point titration, 5-parameter fit based on Morrison equation (tight binding), read-out: TR-FRET Kd^app) [nM]
CCCC[C@@H]1NC(=O)[C@@H]2CC[C@@H](C2)NC(=O)[C@H]([C@@H](C)c2c[nH]c3c(OC)cccc23)NC(=O)CN(C)C(=O)[C@H](Cc2cc(F)c(C(=O)O)c(F)c2)NC(=O)[C@H](Cc2ccc(C(N)=O)cc2)NC(=O)[C@](C)(CO)NC(=O)[C@H](Cc2c[nH]c3c(C#N)cccc23)NC(=O)[C@H](Cc2cc(F)c(C(=O)O)c(F)c2)NC(=O)[C@H](CC(N)=O)NC(=O)[C@H]2C[C@H](NC(=O)C[N+](C)(C)C)CN2C(=O)[C@H](Cc2c[nH]c3ncccc23)NC(=O)[C@@H]2CC[C@@H](O)CN2C(=O)[C@H](Cc2ccncc2)NC1=O [SEQ ID NO. 193] (cyclo([4Pal][Pip(5R-OH)][Trp(7-aza)][X49]N[X54][Trp(7-CN)][αMeS][Phe(4-CONH2)][X54][Sar][Trp(βS-Me,7-OMe)][X1][Nle])) | 1 | 0.15 | – | –
CCCC[C@@H]1NC(=O)[C@@H]2CC[C@@H](C2)NC(=O)[C@H]([C@@H](C)c2c[nH]c3c(OC)cccc23)NC(=O)CN(C)C(=O)[C@H](Cc2ccc(OCCN(C)C)cc2)NC(=O)[C@H](Cc2ccc(C(=O)O)cc2)NC(=O)[C@](C)(CO)NC(=O)[C@H](Cc2c[nH]c3c(Cl)cccc23)NC(=O)[C@H](Cc2ccncc2)NC(=O)[C@H](CC(N)=O)NC(=O)[C@H](CCC(=O)O)N(C)C(=O)[C@H](Cc2c[nH]c3ccccc23)NC(=O)[C@@H]2CNCCN2C(=O)[C@H](Cc2ccncc2)NC1=O [SEQ ID NO. 195] (cyclo([4Pal][Trp(7-Cl)][αMeS][Phe(4-COOH)]Y(Me2NCH2CH2)[Sar][Trp(βS-Me,7-OMe)][X1][Nle][4Pal][Pip(4-aza)]W[NMeE]N)) | 1.6 | 0.28 | – | –
CCCC[C@@H]1NC(=O)[C@@H]2CC[C@@H](C2)NC(=O)[C@H]([C@@H](C)c2c[nH]c3c(OC)cccc23)NC(=O)CN(C)C(=O)[C@H](Cc2ccc(O)cc2)NC(=O)[C@H](Cc2ccc(C(=O)O)cc2)NC(=O)[C@](C)(CO)NC(=O)[C@H](Cc2c[nH]c3c(Cl)cccc23)NC(=O)[C@H](Cc2ccncc2)NC(=O)[C@H](CC(N)=O)NC(=O)[C@H](CCC(=O)O)N(C)C(=O)[C@H](Cc2cn(CC(=O)O)c3ccccc23)NC(=O)[C@@H]2CNCCN2C(=O)[C@H](Cc2ccncc2)NC1=O [SEQ ID NO. 197] (cyclo([4Pal][Trp(7-Cl)][αMeS][Phe(4-COOH)]Y[Sar][Trp(βS-Me,7-OMe)][X1][Nle][4Pal][Pip(4-aza)][Trp(1-CH2COOH)][NMeE]N)) | 0.7 | 0.36 | – | –
CCCC[C@@H]1NC(=O)[C@@H]2CC[C@@H](C2)NC(=O)[C@H]([C@@H](C)c2c[nH]c3c(OC)cccc23)NC(=O)CN(C)C(=O)[C@H](Cc2ccc(O)cc2)NC(=O)[C@H](Cc2ccc(C(=O)O)cc2)NC(=O)[C@](C)(CO)NC(=O)[C@H](Cc2c[nH]c3c(Cl)cccc23)NC(=O)[C@H](Cc2ccncc2F)NC(=O)[C@H](CC(N)=O)NC(=O)[C@H](CCC(=O)O)N(C)C(=O)[C@H](Cc2c[nH]c3ccccc23)NC(=O)[C@@H]2CNCCN2C(=O)[C@H](Cc2ccncc2)NC1=O [SEQ ID NO. 198] (cyclo([4Pal][Pip(4-aza)]W[NMeE]N[X53][Trp(7-Cl)][αMeS][Phe(4-COOH)]Y[Sar][Trp(βS-Me,7-OMe)][X1][Nle])) | 0.8 | 0.31 | – | –
CCCC[C@@H]1NC(=O)[C@@H]2CC[C@@H](C2)NC(=O)[C@H]([C@@H](C)c2c[nH]c3c(OC)cccc23)NC(=O)CN(C)C(=O)[C@H](Cc2ccc(O)cc2)NC(=O)[C@H](Cc2ccc(S(=O)(=O)O)cc2)NC(=O)[C@](C)(CO)NC(=O)[C@H](Cc2c[nH]c3c(Cl)cccc23)NC(=O)[C@H](Cc2ccncc2)NC(=O)[C@H](CC(N)=O)NC(=O)[C@H](CCC(=O)O)N(C)C(=O)[C@H](Cc2c[nH]c3ccccc23)NC(=O)[C@@H]2CNCCN2C(=O)[C@H](Cc2ccncc2)NC1=O [SEQ ID NO. 199] (cyclo([4Pal][Trp(7-Cl)][αMeS][Phe(4-SO3H)]Y[Sar][Trp(βS-Me,7-OMe)][X1][Nle][4Pal][Pip(4-aza)]W[NMeE]N)) | 1 | 0.32 | – | –
CCCC[C@@H]1NC(=O)[C@@H]2CC[C@@H](C2)NC(=O)[C@H]([C@@H](C)c2c[nH]c3c(OC)cccc23)NC(=O)CN(C)C(=O)[C@H](Cc2ccc(O)cc2)NC(=O)[C@H](Cc2ccc(C(=O)O)cc2)NC(=O)[C@](C)(CO)NC(=O)[C@H](Cc2c[nH]c3c(Cl)cccc23)NC(=O)[C@H](Cc2ccncc2)NC(=O)[C@H](CC(N)=O)NC(=O)[C@H](CCC(=O)O)N(C)C(=O)[C@H](Cc2c[nH]c3ccccc23)NC(=O)[C@@H]2CNCCN2C(=O)[C@H](Cc2ccncc2F)NC1=O [SEQ ID NO. 201] (cyclo([4Pal][Trp(7-Cl)][αMeS][Phe(4-COOH)]Y[Sar][Trp(βS-Me,7-OMe)][X1][Nle][X53][Pip(4-aza)]W[NMeE]N)) | 0.9 | 0.21 | – | –
CCCC[C@@H]1NC(=O)[C@@H]2CC[C@@H](C2)NC(=O)[C@H]([C@@H](C)c2c[nH]c3c(OC)cccc23)NC(=O)CN(C)C(=O)[C@H](Cc2ccc(C(=O)O)cc2)NC(=O)[C@H](Cc2ccc(S(N)(=O)=O)cc2)NC(=O)[C@](C)(CO)NC(=O)[C@H](Cc2c[nH]c3c(C#N)cccc23)NC(=O)[C@H](Cc2ccc(C(=O)O)cc2)NC(=O)[C@H](CC(N)=O)NC(=O)[C@H]2C[C@H](OCC(=O)O)CN2C(=O)[C@H](Cc2[nH]nc3ccccc23)NC(=O)[C@@H]2CC[C@@H](O)CN2C(=O)[C@H](Cc2ccncc2)NC1=O [SEQ ID NO. 204] (cyclo([4Pal][Pip(5R-OH)][X59][dHyp](Carboxymethyl)N[Phe(4-COOH)][Trp(7-CN)][αMeS][Phe(4-SO2NH2)][Phe(4-COOH)][Sar][Trp(βS-Me,7-OMe)][X1][Nle])) | 0.8 | 0.11 | – | –
CCCC[C@@H]1NC(=O)[C@@H]2CC[C@@H](C2)NC(=O)[C@H]([C@@H](C)c2c[nH]c3c(OC)cccc23)NC(=O)CN(C)C(=O)[C@H](Cc2ccc(C(=O)O)c(Cl)c2)NC(=O)[C@H](Cc2ccc(C(N)=O)cc2)NC(=O)[C@](C)(CO)NC(=O)[C@H](Cc2c[nH]c3c(C#N)cccc23)NC(=O)[C@H](Cc2ccc(C(=O)O)c(Cl)c2)NC(=O)[C@H](CC(N)=O)NC(=O)[C@H]2C[C@H](O)CN2C(=O)[C@H](Cc2c[nH]c3ccccc23)NC(=O)[C@@H]2CC[C@@H](O)CN2C(=O)[C@H](Cc2ccncc2)NC1=O [SEQ ID NO. 207] (cyclo([4Pal][Pip(5R-OH)]W[dHyp]N[X62][Trp(7-CN)][αMeS][Phe(4-CONH2)][X62][Sar][Trp(βS-Me,7-OMe)][X1][Nle])) | 1 | 0.12 | – | –
CCCC[C@@H]1NC(=O)CSC[C@@H](C(N)=O)NC(=O)[C@H]([C@@H](C)c2c[nH]c3c(C)cccc23)NC(=O)CN(C)C(=O)[C@H](Cc2ccc(O)cc2)NC(=O)[C@H](Cc2ccc(C(=O)O)cc2)NC(=O)[C@](C)(CO)NC(=O)[C@H](Cc2c[nH]c3c(Cl)cccc23)NC(=O)[C@H](Cc2ccncc2)NC(=O)[C@H](CC(N)=O)NC(=O)[C@H](CCC(=O)O)N(C)C(=O)[C@H](Cc2c[nH]c3ccccc23)NC(=O)[C@@H]2CCCCN2C(=O)[C@H](Cc2ccncc2)NC1=O [SEQ ID NO. 208] ({CH2CO}-[Nle][4Pal][Pip]W[NMeE]N[4Pal][Trp(7-Cl)][αMeS][Phe(4-COOH)]Y[Sar][X56]C-NH2; thioether N-14) | 4 | – | 1.31 | –
CCCC[C@@H]1NC(=O)[C@@H]2CC[C@@H](C2)NC(=O)[C@H]([C@@H](C)c2c[nH]c3c(OC)cccc23)NC(=O)CN(C)C(=O)[C@H]([C@H](O)c2ccc(C(N)=O)cc2)NC(=O)[C@H](Cc2ccc(S(N)(=O)=O)cc2)NC(=O)[C@](C)(CO)NC(=O)[C@H](Cc2c[nH]c3c(C#N)cccc23)NC(=O)[C@H](Cc2ccc(C(=O)O)cc2)NC(=O)[C@H](CC(N)=O)NC(=O)[C@H]2C[C@H](O)CN2C(=O)[C@H](Cc2cn(CC(=O)O)c3ccccc23)NC(=O)[C@@H]2CC[C@@H](O)CN2C(=O)[C@H](Cc2ccncc2)NC1=O [SEQ ID NO. 210] (cyclo([4Pal][Pip(5R-OH)][Trp(1-CH2COOH)][dHyp]N[Phe(4-COOH)][Trp(7-CN)][αMeS][Phe(4-SO2NH2)][X44][Sar][Trp(βS-Me,7-OMe)][X1][Nle])) | 0.5 | – | – | 0.12
